Measured values published in patent US20250197914A1, “MICROBIAL MEDIUM COMPOSITION FOR PRODUCING RETINOL, COMPRISING ANTI-OXIDANT, AND USE THEREOF” (CJ CHEILJEDANG CORPORATION, priority 2022, published 2025).

System: retinol-producing strains (Yarrowia lipolytica)
Assay: Flask test of retinol production of retinol-producing strains with antioxidants in the medium
Assay type: cell-based
Details: antioxidant added to YLMM2 medium at 0.01% to 0.05%; 30° C., 200 rpm; 48 hour culture; HPLC
Procedure: A flask test was performed to compare the degree of retinol production of retinol-producing strains according to the presence and absence, and the type of antioxidants. Each retinol production platform strain was inoculated in a 250 ml corner-baffled flask containing 25 ml of Yarrowia lipolytica minimal media2 (YLMM2) at an initial OD of 4, and 4 types of antioxidants, 3,5-Di-tert-4-butylhydroxytoluene (BHT), propyl gallate (PG), vitamin C, and glutathione (GSH), were added to the medium at a concentration of 0.01% to 0.05%, respectively. Culturing was carried out under conditions of 30° C. and 200 rpm.
To evaluate the degree of growth according to culture time, the OD value at a wavelength of 600 nm was measured using a spectrophotometer, and the method of measuring retinol concentrations is as follows; After the culture was completed, 1 ml of the culture medium was centrifuged to remove the supernatant, then 0.5 ml of dimethyl sulfoxide (DMSO, Sigma) was added and the cells were disrupted by agitation at 55° C. for 10 minutes (agitation; 2,000 rpm). Next, 0.5 ml of acetone (Sigma) containing 4% BHT was added and agitated (2,000 rpm) for 15 min at 45° C., and retinoids extracted in this manner were quantitatively analyzed using HPLC equipment.
Considering that the sugar consumption rate may vary depending on the type of antioxidants which were added to the medium, BHT, PG, vitamin C, and GSH were each cultured for 48 hours. After 48 hour-incubation, retinal and retinol were extracted and quantified.

SMILES | retinol concentration increase as compared to the control group without antioxidants
N[C@@H](CCC(=O)N[C@@H](CS)C(=O)NCC(=O)O)C(=O)O [GSH, glutathione] | ≤ 1.21 times
O=C1O[C@H]([C@@H](O)CO)C(O)=C1O [vitamin C, ascorbic acid] | ≤ 1.44 times
Cc1cc(C(C)(C)C)c(O)c(C(C)(C)C)c1 [BHT, 3,5-di-tert-4-butylhydroxytoluene] | up to 1.89 times
CCCOC(=O)c1cc(O)c(O)c(O)c1 [PG, propyl gallate] | ≤ 1.82 times
